Measured values taken from PubChem BioAssay (NCI).
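Method: 48-hour compound exposure of cells in 96-well plates, five concentrations, linear interpolation of endpoints. GI50 = concentration required for 50% inhibition of growth. At the TGI there is no net growth.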

Assays:
Assay in all cases: DTP human tumour cell line panel, 48 h
ACHN renal = tested on: ACHN renal
SF-268 CNS = tested on: SF-268 CNS
SF-295 CNS = tested on: SF-295 CNS
UACC-62 melanoma = tested on: UACC-62 melanoma
COLO 205 colon = tested on: COLO 205 colon
MOLT-4 leukemia = tested on: MOLT-4 leukemia
SK-MEL-2 melanoma = tested on: SK-MEL-2 melanoma
HOP-92 NSCLC = tested on: HOP-92 NSCLC
HOP-62 NSCLC = tested on: HOP-62 NSCLC
HCC-2998 colon = tested on: HCC-2998 colon

SMILES | GI50 (ACHN renal) | TGI (ACHN renal) | GI50 (SF-268 CNS) | TGI (SF-268 CNS) | GI50 (SF-295 CNS) | TGI (SF-295 CNS) | GI50 (UACC-62 melanoma) | TGI (UACC-62 melanoma) | GI50 (COLO 205 colon) | TGI (COLO 205 colon) | GI50 (MOLT-4 leukemia) | TGI (MOLT-4 leukemia) | GI50 (SK-MEL-2 melanoma) | TGI (SK-MEL-2 melanoma) | GI50 (HOP-92 NSCLC) | TGI (HOP-92 NSCLC) | GI50 (HOP-62 NSCLC) | TGI (HOP-62 NSCLC) | GI50 (HCC-2998 colon) | TGI (HCC-2998 colon)
CC(=O)c1ccc(NCn2nc(-c3ccccc3O)oc2=S)cc1 | 29.6 µM | 71.9 µM | > 100 µM | > 100 µM | > 100 µM | > 100 µM | 35.8 µM | > 100 µM | 43.4 µM | > 100 µM | 0.88 µM | > 100 µM | > 100 µM | > 100 µM | 42.8 µM | > 100 µM | > 100 µM | > 100 µM | 27.8 µM | 66.2 µM
CC(=O)C1C(=O)C(=O)N(c2ccc(Cl)cc2C)C1=O (stereo unspecified) |  | > 100 µM |  | > 100 µM |  | > 100 µM |  | > 100 µM |  | > 100 µM |  | > 100 µM |  | > 100 µM |  | > 100 µM |  | > 100 µM |  | > 100 µM
Cc1cc(C)c(S(=O)(=O)Oc2ccccc2[N+](=O)[O-])c(C)c1 | 5.56 µM | > 100 µM | 4.57 µM | > 100 µM | 1.67 µM | > 24.3 µM | 2.46 µM | > 100 µM | 2.9 µM | 12.9 µM | 1.39 µM | > 100 µM | 3.41 µM | > 100 µM | 1.98 µM | 25.4 µM | 3.33 µM | > 100 µM | 2.95 µM | > 100 µM
CN1NC(c2ccccc2)=C(C#N)C(=O)CC1c1ccccc1Cl (stereo unspecified) |  | > 100 µM |  | > 100 µM |  | > 100 µM |  |  |  | > 100 µM |  | > 100 µM |  | > 100 µM |  | > 100 µM |  | 94.1 µM |  | > 100 µM
S=C1SC2(CCCCCC2)NC2=C1CCCCC2 |  | > 100 µM |  | > 100 µM |  | 99 µM |  | > 100 µM |  | 35.8 µM |  | 66.8 µM |  | 47.4 µM |  | 67.3 µM |  | > 100 µM |  | > 100 µM
CCCCC/C=C1\CCC(CN2CCOCC2)C1=O (stereo unspecified) |  | 30.1 µM |  | 34 µM |  | 32.3 µM |  | 28.5 µM |  | 13.7 µM |  | 7.55 µM |  | 29.6 µM |  | 29 µM |  | 54.5 µM |  | 27.7 µM
C=C(C)[C@@H]1CC[C@]2(c3ncc(C)o3)CC[C@]3(C)[C@H](CC[C@@H]4[C@@](C)(CCC#N)[C@H](C(=C)C)CC[C@]43C)[C@@H]12 | 4.65 µM | 17.2 µM | 4.68 µM | 18.9 µM | 7.22 µM | 21.2 µM | 2.38 µM | 6.96 µM | 5.79 µM | 21.4 µM | 2.85 µM | 9.82 µM | 16.4 µM | 33.7 µM | 1.56 µM | 3.39 µM | 6.99 µM | 21.6 µM | 3.51 µM | 12.4 µM
CCCCCCCCCCSS(=O)(=O)c1ccc(C)cc1 |  | 31 µM |  | 19 µM |  | 18.1 µM |  | 16.1 µM |  | 33.6 µM |  | 6.73 µM |  | 12.4 µM |  | 27.2 µM |  | 40.1 µM |  | 39.3 µM
CCC1(c2ccncc2)CCC(=O)NC1=O (stereo unspecified) |  | > 100 µM |  | > 100 µM |  | > 100 µM |  | > 100 µM |  | > 100 µM |  | > 100 µM |  | > 100 µM |  | > 100 µM |  | > 100 µM |  | > 100 µM
CCOc1ccccc1N=C(NC(=O)CC)SC | > 100 µM | > 100 µM | > 100 µM | > 100 µM | > 100 µM | > 100 µM | > 100 µM | > 100 µM |  | > 10 µM | > 10 µM | > 100 µM | > 10 µM | > 100 µM |  | > 10 µM | > 100 µM | > 100 µM | > 100 µM | > 100 µM
CCCCn1c(=O)c(/C=C/C(=O)/C=C/c2ccc(O)c(OC)c2)cc2ccc(Cl)cc21 | 1.6 µM | 2.95 µM | 1.96 µM | 5.43 µM | 2.75 µM | 10.3 µM | 1.48 µM | 3.24 µM | 1.72 µM | 4.83 µM | 2.17 µM | 16.3 µM | 2.67 µM | 6.32 µM | 1.75 µM | 4.19 µM | 1.81 µM | 4.17 µM | 2.05 µM | 3.54 µM
CC(=O)OC1C(O)COC(Oc2c(C)c3c4c(c2O)[C@@H](C)CC[C@@H]4[C@@H](C)C[C@H]3C=C(C)C)C1O (stereo partly specified) | 18.7 µM | 42.5 µM | 12.9 µM | 32.7 µM | 18.1 µM | 35.7 µM | 16.3 µM | 36 µM | 21.5 µM | 50.5 µM | 4.89 µM | 28.5 µM | 42.7 µM | > 100 µM | 15.6 µM | 32 µM | 15.4 µM | 32.5 µM | 18.7 µM | 43.6 µM
[O-]c1c(-c2ccccc2)[se]c(-c2ccccc2)[n+]1-c1ccccc1 |  |  |  | 21.6 µM |  | 12.1 µM |  | 27.5 µM |  | 31.3 µM |  | 92.9 µM |  | 19.8 µM |  | 38.1 µM |  |  |  | 19.3 µM
Cc1occc1C(=S)Nc1ccc(Cl)c(C(=O)OCC2CC2)c1 |  | > 100 µM |  | > 100 µM |  | > 100 µM |  | > 100 µM |  | > 100 µM |  | > 100 µM |  | > 100 µM |  | > 100 µM |  |  |  | > 100 µM
Cc1ccc(S(=O)(=O)NC(C)C(=O)O)cc1 (stereo unspecified) |  | > 100 µM |  | > 100 µM |  | > 100 µM |  | > 100 µM |  | > 100 µM |  | > 100 µM |  | > 100 µM |  | > 100 µM |  |  |  | > 100 µM
CC(C)NCCCNC1=C(Cl)C(=O)c2ccccc2C1=O | 12.6 µM | 25.8 µM | 4.42 µM | 15.1 µM |  |  | 2.1 µM | 4.91 µM | 1.87 µM | 3.56 µM | 2.05 µM | 4.61 µM | 13.5 µM | 30 µM | 14.6 µM | 31.2 µM | 13.8 µM | 27.4 µM | 2.14 µM | 4.49 µM
